# According to doi:10.1101/2022.04.05.487101v2 (biorxiv, 2022):
# Molecular target: SOX2 (Homo sapiens, UniProt P48431)
# Assay: competitive EMSA
# Type: binding
# Conditions: 300 uM compound; pH 7.5; competes with DNA; off-target control
# SOX2, sequence (P48431 whole entry): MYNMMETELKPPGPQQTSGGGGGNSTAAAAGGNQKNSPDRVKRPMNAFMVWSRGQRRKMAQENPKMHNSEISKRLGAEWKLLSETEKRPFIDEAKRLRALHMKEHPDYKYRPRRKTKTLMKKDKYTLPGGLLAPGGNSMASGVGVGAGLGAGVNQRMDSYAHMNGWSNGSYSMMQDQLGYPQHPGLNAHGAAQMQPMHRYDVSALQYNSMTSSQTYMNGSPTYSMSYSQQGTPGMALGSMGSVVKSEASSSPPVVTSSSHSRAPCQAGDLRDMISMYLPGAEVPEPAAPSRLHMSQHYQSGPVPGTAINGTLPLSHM
smiles,measurement,value
"Cc1cc2nc(-c3cccc(NC(=O)c4ccc(C)c([N+](=O)[O-])c4)c3)oc2cc1C [A, Compound A]",competitive EMSA (loss of shifted biotin-DNA probe),SOX2 was competed by Compound A only
